Where “and” joins values, the source holds several entries; their conditions need not be identical. Equal entries are not always repeated. Inconclusive results and toxic doses are left out.
Test system: BDF1 mice, P388 leukemia ip, median survival T/C
Experiment: NCI In Vivo Anticancer Drug Screen. Data for tumor model P388 Leukemia (intraperitoneal) in B6D2F1 (BDF1) mice
Conditions: endpoint: median survival time, higher = longer survival
In short: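 Steps: implant the tumour, treat one group with compound and another with vehicle, record survival, then divide treated by control.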

[1] = dose: 100.0 mg/kg/injection, schedule: Q04DX003 (ip), vehicle: Klucel (hydroxypropylcellulose) (HPC)
[2] = dose: 200.0 mg/kg/injection, schedule: Q04DX003 (ip), vehicle: Klucel (hydroxypropylcellulose) (HPC)
[3] = dose: 400.0 mg/kg/injection, schedule: Q04DX003 (ip), vehicle: Klucel (hydroxypropylcellulose) (HPC)
[4] = dose: 12.5 mg/kg/injection, schedule: Q01DX009 (ip), vehicle: saline with Tween-80
[5] = dose: 25.0 mg/kg/injection, schedule: Q01DX009 (ip), vehicle: saline with Tween-80
[6] = dose: 50.0 mg/kg/injection, schedule: Q01DX009 (ip), vehicle: saline with Tween-80
[7] = dose: 100.0 mg/kg/injection, schedule: Q01DX009 (ip), vehicle: saline with Tween-80
[8] = dose: 200.0 mg/kg/injection, schedule: Q01DX009 (ip), vehicle: saline with Tween-80
[9] = dose: 37.5 mg/kg/injection, schedule: Q01DX009 (ip), vehicle: Klucel (hydroxypropylcellulose) (HPC)
[10] = dose: 75.0 mg/kg/injection, schedule: Q01DX009 (ip), vehicle: Klucel (hydroxypropylcellulose) (HPC)
[11] = dose: 400.0 mg/kg/injection, schedule: Q01DX009 (ip), vehicle: saline with Tween-80
[12] = dose: 100.0 mg/kg/injection, schedule: Q04DX003 (ip), vehicle: saline with Tween-80
[13] = dose: 200.0 mg/kg/injection, schedule: Q04DX003 (ip), vehicle: saline with Tween-80
[14] = dose: 25.0 mg/kg/injection, schedule: Q04DX003 (ip), vehicle: saline with Tween-80
[15] = dose: 50.0 mg/kg/injection, schedule: Q04DX003 (ip), vehicle: saline with Tween-80

Cc1cc(N(CCCl)CCCl)ccc1C=Nc1ccccc1-c1ccccc1
T/C (dose: 100.0 mg/kg/injection, schedule: Q01DX009 (ip), vehicle: Klucel (hydroxypropylcellulose) (HPC)): 120 % of control | T/C [1]: 112 % of control | T/C [2]: 116 % of control | T/C (dose: 266.0 mg/kg/injection, schedule: Q04DX003 (ip), vehicle: Klucel (hydroxypropylcellulose) (HPC)): 120 % of control | T/C (dose: 400.0 mg/kg/injection, schedule: Q01DX009 (ip), vehicle: Klucel (hydroxypropylcellulose) (HPC)): 150 % of control and 158 % of control | T/C [3]: 95 % of control | T/C (dose: 600.0 mg/kg/injection, schedule: Q01DX009 (ip), vehicle: Klucel (hydroxypropylcellulose) (HPC)): 200 % of control | T/C (dose: 600.0 mg/kg/injection, schedule: Q04DX003 (ip), vehicle: Klucel (hydroxypropylcellulose) (HPC)): 154 % of control

NC(=O)c1cc(O)c(Br)c(O)c1
T/C (dose: 100.0 mg/kg/injection, schedule: Q01DX001 (ip), vehicle: saline): 100 % of control | T/C (dose: 200.0 mg/kg/injection, schedule: Q01DX001 (ip), vehicle: saline): 109 % of control | T/C (dose: 400.0 mg/kg/injection, schedule: Q01DX001 (ip), vehicle: saline): 95 % of control

COc1ccc2c(c1)CCC1=C2C=C[P+]1(C)C
T/C [4]: 92 % of control | T/C [5]: 111 % of control

Cn1/c2cc/c1=C(\c1ccc(S(=O)(=O)O)cc1)c1ccc([n-]1)/C(c1ccc(S(=O)(=O)O)cc1)=c1/cc/c([nH]1)=C(\c1ccc(S(=O)(=O)O)cc1)c1ccc([n-]1)/C=2c1ccc(S(=O)(=O)O)cc1.O.O=S(=O)(O)C(F)(F)F.[Cu+2]
T/C (dose: 6.25 mg/kg/injection, schedule: Q01DX009 (ip), vehicle: saline): 101 % of control | T/C (dose: 50.0 mg/kg/injection, schedule: Q01DX009 (ip), vehicle: saline): 101 % of control

CCCCCCCCCCCC[n+]1ccc2ccccc2c1
T/C (dose: 1.0 mg/kg/injection, schedule: Q01DX010 (ip), vehicle: saline): 115 % of control

CCCC(=O)OCc1ccccn1
T/C [6]: 107 % of control | T/C [7]: 102 % of control | T/C [8]: 86 % of control

COc1cc2c(cc1OC)-c1c3c(cc4c1[C@H](C2)N(C)CC4)OCO3
T/C [9]: 97 % of control | T/C [10]: 98 % of control | T/C (dose: 150.0 mg/kg/injection, schedule: Q01DX009 (ip), vehicle: Klucel (hydroxypropylcellulose) (HPC)): 98 % of control

COc1cc(NC(=O)CC(C)=O)c(OC)cc1Cl
T/C [7]: 95 % of control | T/C [8]: 100 % of control | T/C [11]: 104 % of control

CCOC(=O)C1=C2c3ccc4ccccc4c3CCC2(C)C(=O)C1 (configuration not stated)
T/C (dose: 10.0 mg/kg/injection, schedule: Q01DX009 (sc), vehicle: steriod suspending solution): 104 % of control | T/C (dose: 18.0 mg/kg/injection, schedule: Q04DX003 (sc), vehicle: steriod suspending solution): 91 % of control | T/C (dose: 20.0 mg/kg/injection, schedule: Q01DX009 (sc), vehicle: steriod suspending solution): 95 % of control | T/C (dose: 37.5 mg/kg/injection, schedule: Q04DX003 (sc), vehicle: steriod suspending solution): 95 % of control | T/C (dose: 40.0 mg/kg/injection, schedule: Q01DX009 (sc), vehicle: steriod suspending solution): 100 % of control | T/C (dose: 75.0 mg/kg/injection, schedule: Q04DX003 (sc), vehicle: steriod suspending solution): 108 % of control

CNc1cc(C(C)C)ccc1C
T/C (dose: 32.5 mg/kg/injection, schedule: Q01DX009 (sc), vehicle: olive oil, sesame oil, peanut oil): 104 % of control | T/C (dose: 65.0 mg/kg/injection, schedule: Q01DX009 (sc), vehicle: olive oil, sesame oil, peanut oil): 104 % of control | T/C (dose: 100.0 mg/kg/injection, schedule: Q04DX003 (sc), vehicle: olive oil, sesame oil, peanut oil): 104 % of control | T/C (dose: 130.0 mg/kg/injection, schedule: Q01DX009 (sc), vehicle: olive oil, sesame oil, peanut oil): 100 % of control | T/C (dose: 200.0 mg/kg/injection, schedule: Q04DX003 (sc), vehicle: olive oil, sesame oil, peanut oil): 109 % of control | T/C (dose: 400.0 mg/kg/injection, schedule: Q04DX003 (sc), vehicle: olive oil, sesame oil, peanut oil): 118 % of control

C1CC[N-]CC1.C1CC[N-]CC1.C1CC[N-]CC1.C1CC[N-]CC1.[Cl][Co][Cl]
T/C [5]: 118 % of control | T/C (dose: 33.0 mg/kg/injection, schedule: Q01DX009 (ip), vehicle: saline with Tween-80): 100 % of control | T/C (dose: 75.0 mg/kg/injection, schedule: Q01DX009 (ip), vehicle: saline with Tween-80): 120 % of control

N#Cc1ccc(Oc2ccc(C#N)cc2)cc1
T/C [12]: 92 % of control | T/C [13]: 88 % of control | T/C (dose: 400.0 mg/kg/injection, schedule: Q04DX003 (ip), vehicle: saline with Tween-80): 88 % of control

Cc1c(F)cc(I)cc1[N+](=O)[O-]
T/C (dose: 100.0 mg/kg/injection, schedule: Q01DX001 (ip), vehicle: Klucel (hydroxypropylcellulose) (HPC)): 113 % of control | T/C (dose: 200.0 mg/kg/injection, schedule: Q01DX001 (ip), vehicle: Klucel (hydroxypropylcellulose) (HPC)): 104 % of control | T/C (dose: 400.0 mg/kg/injection, schedule: Q01DX001 (ip), vehicle: Klucel (hydroxypropylcellulose) (HPC)): 118 % of control

Nc1nccc(NC(c2ccccc2)c2ccccc2)c1N
T/C (dose: 3.0 mg/kg/injection, schedule: Q01DX009 (ip), vehicle: DMSO): 95 % of control | T/C (dose: 6.0 mg/kg/injection, schedule: Q01DX009 (ip), vehicle: DMSO): 100 % of control | T/C (dose: 12.0 mg/kg/injection, schedule: Q01DX009 (ip), vehicle: DMSO): 95 % of control | T/C (dose: 12.5 mg/kg/injection, schedule: Q01DX009 (ip), vehicle: DMSO): 103 % of control | T/C (dose: 12.5 mg/kg/injection, schedule: Q04DX003 (ip), vehicle: DMSO): 95 % of control | T/C (dose: 25.0 mg/kg/injection, schedule: Q04DX003 (ip), vehicle: DMSO): 100 % of control | T/C (dose: 50.0 mg/kg/injection, schedule: Q04DX003 (ip), vehicle: DMSO): 100 % of control

CSc1nc([N+](=O)[O-])c2cnccn12
T/C (dose: 5.0 mg/kg/injection, schedule: Q04DX003 (ip), vehicle: saline with Tween-80): 103 % of control | T/C (dose: 6.25 mg/kg/injection, schedule: Q01DX009 (ip), vehicle: saline with Tween-80): 97 % of control | T/C (dose: 10.0 mg/kg/injection, schedule: Q04DX003 (ip), vehicle: saline with Tween-80): 99 % of control | T/C [4]: 99 % of control | T/C (dose: 12.5 mg/kg/injection, schedule: Q04DX003 (ip), vehicle: saline with Tween-80): 101 % of control | T/C (dose: 20.0 mg/kg/injection, schedule: Q04DX003 (ip), vehicle: saline with Tween-80): 90 % of control | T/C [5]: 96 % of control | T/C [14]: 92 % of control | T/C (dose: 40.0 mg/kg/injection, schedule: Q04DX003 (ip), vehicle: saline with Tween-80): 114 % of control | T/C [15]: 89 % of control

CC(=O)N(C)C(C(=O)N1CC(C)CC1C(=O)N(C)C1C(=O)NC(CC(C)C)C(=O)N2CC(C)CC2C(=O)NC(CC(C)C)C(=O)N(C)C(C(C)C)C(=O)N2CCCC2C(=O)N(C)C(CC(C)C)C(=O)NCC(=O)OC1C)C(C)C (configuration not stated)
T/C [9]: 107 % of control | T/C [10]: 107 % of control

C#CC(N)=O
T/C (dose: 12.5 mg/kg/injection, schedule: Q04DX003 (ip), vehicle: Klucel (hydroxypropylcellulose) (HPC)): 100 % of control | T/C (dose: 25.0 mg/kg/injection, schedule: Q04DX003 (ip), vehicle: Klucel (hydroxypropylcellulose) (HPC)): 90 % of control

C/C(=C/c1cc2c(cc1Br)OCO2)[N+](=O)[O-]
T/C [14]: 98 % of control | T/C [15]: 98 % of control | T/C [12]: 100 % of control and 106 % of control | T/C [13]: 115 % of control

Cc1ccc(S(=O)(=O)N=S2CCCC2)cc1
T/C [1]: 100 % of control | T/C [2]: 95 % of control | T/C [3]: 100 % of control

CCc1oc(=O)c(Cc2c(O)cc(O)c3c2OC(c2ccccc2)CC3=O)c(O)c1C (configuration not stated)
T/C (dose: 4.0 mg/kg/injection, schedule: Q01DX009 (ip), vehicle: Klucel (hydroxypropylcellulose) (HPC)): 95 % of control | T/C (dose: 8.0 mg/kg/injection, schedule: Q01DX009 (ip), vehicle: Klucel (hydroxypropylcellulose) (HPC)): 100 % of control | T/C (dose: 16.0 mg/kg/injection, schedule: Q01DX009 (ip), vehicle: Klucel (hydroxypropylcellulose) (HPC)): 93 % of control | T/C (dose: 32.0 mg/kg/injection, schedule: Q01DX009 (ip), vehicle: Klucel (hydroxypropylcellulose) (HPC)): 93 % of control

Nc1nc(N)c2cc([N+](=O)[O-])ccc2n1
T/C [6]: 96 % of control | T/C [7]: 101 % of control | T/C [8]: 99 % of control | T/C [11]: 95 % of control

Reference: PubChem BioAssay AID328 (DTP/NCI, 2004)
